The record followed here is patent US9790207B2, “Pan-genomic inhibitors of NS5A protein encoded by HCV, pharmaceutical compositions, intermediates for inhibitor synthesis, and their synthesis and application methods” (priority 2015, dated 2017).

Counter-ions that a name gives are not always drawn. Like-named read-outs stand apart in the source and are kept apart here.

One series concerns HCV gT1b replicon. Put plainly: HCV replicon assay, gT1b. The series is classed as cell-based, Hepatitis C virus (HCV). Conditions: Hepatitis C virus, GT1B, Huh-7, Huh7 replicon cells, mean value. As to the method:
(§1) The HCV replicon assay was used to determine the antiviral activity of compounds of general formula 2 (test compounds). The test cell line used in the HCV Replicon Assay was the human hepatoma cell line Huh7 incorporating the HCV replicons synthesized by an outside vendor.
(§2) 96-well plates were seeded with cells at a density of 7.5×10^3 cells per well in 50 μl of assay media. The compound stock solution was made up freshly in an assay medium (DMEM 1×, Cellgro; cat. #10-013-CV) as a 2× stock. A total of 11 serial 3-fold dilutions of test compounds were prepared from the 2× stock in the assay media ranging from 20 nM-0.2 pM final concentrations. At least 4 hours after seeding the cells, compound treatment was initiated by adding 50 μl of compound dilution to the plates. The final concentrations of compound therefore ranged from 10 nM to 0.1 pM when diluted 1:1 in culture media. The final DMSO concentration was 0.5%. Cells and inhibitors were incubated for 3 days at 37° C./5% CO2. The media was removed from the plates by gentle tapping. The cells were fixed with 100 μl 1:1 acetone:methanol for 1 minute, washed three times with PBS buffer, and then blocked with 150 μl/well 10% Fetal Bovine Serum (FBS) in PBS for 1 hour at room temperature. The cells were then washed three times with PBS buffer and incubated with 100 μl/well anti-hepatitis C core mAb (Affinity BioReagents; cat. # MA1-080, 1 mg/ml stock diluted 1:4,000 in 10% FBS-PBS) for 2 hours at 37° C. Then, the cells were washed three times with PBS and incubated with 100 μl/well HRP-Goat Anti-Mouse antibody (diluted 1:3.500 in 10% FBS-PBS) for 1 hour at 37° C. The cells were then washed three times with PBS and developed with an OPD solution, 100 μl/well (1 OPD tablet+12 ml citrate/phosphate buffer+5 μl 30% H2O2 per plate), for 30 minutes in the dark at room temperature. The reaction was stopped with 2N H2SO4 (100 μl/well), and the absorbance was measured at A490 X on a Victor^3 V 1420 multilabel counter (Perkin Elmer).

The next series relates to HCV gT5a replicon. In words: HCV replicon assay, gT5a. Conditions: Hepatitis C virus, GT5A, Huh-7, read-out: gT5a, EC50 (pM) mean. Format: cell-based, Hepatitis C virus (HCV). The procedure:
as §1, §2

A further series concerns HCV gT2a replicon. In words: HCV replicon assay, gT2a. The series is classed as cell-based, Hepatitis C virus (HCV). Conditions: Hepatitis C virus, GT2A, Huh-7; Huh7 replicon cells; mean. As to the method: as §1, §2
Another series relates to HCV gT4a replicon. In words: HCV replicon assay, gT4a. Format: cell-based, Hepatitis C virus (HCV). Conditions: Hepatitis C virus, GT4A, Huh-7, read-out: gT4a, EC50 (pM) mean. As to the method:
as §1, §2

Another series relates to HCV gT1a replicon. Put plainly: HCV replicon assay, gT1a. The series is classed as cell-based, Hepatitis C virus (HCV). Conditions: Hepatitis C virus, GT1A, Huh-7; Huh7 replicon cells; mean. The procedure: as §1, §2
The nature of series [1]: Cytotoxicity, cell viability by ATPLite Kit. Format: cell-based, human. Conditions: human, Huh7 cells (human hepatoma cell line), 10% FBS, maximal inhibition, read-out: Cytotox gT1b 10% FBS max. inh. As to the method: The cytotoxicity of the test compounds was studied in parallel using the same cell line, Huh7. Cell viability was determined using the ATPLite Kit (Perkin-Elmer, Boston, USA), according to manufacturer's instructions. 96-well black/transparent bottom plates were seeded with cells at a density of 7.5×10^3 cells per well in 50 μl medium. After 18 hours, compound treatment was initiated by adding 50 μl of compound dilution into the plates. Each compound dilution was tested in triplicates. The cells and inhibitors were then incubated for 96 hours at 37° C./5% CO2. The plates were washed twice with PBS (0.2 ml/well), and then lysed by adding lysis buffer, 0.05 ml/well (all reagents were included with the ATPLite Kit). After rocking for 5 min on a rocking platform, substrate buffer was added (0.05 ml/well). After additional 5-min incubation, the plates were kept in dark for 10 min, and the luminescence was read using TopCount NXT (Packard, Perkin Elmer). CC50 values for all test compounds were determined using XLfit 4.1 software (Table 2).

Another series concerns HCV gT3a replicon. Put plainly: HCV replicon assay, gT3a. Format: cell-based, Hepatitis C virus (HCV). Conditions: Hepatitis C virus, GT3A, Huh-7, Huh7 replicon cells; mean; read-out: gT3a, EC50 (pM) mean. The procedure: as §1, §2
The mark [2] stands for this setting: 10% FBS, read-out: gT1b 10% FBS, EC50 (pM) mean.
The mark [3] stands for this setting: 40% NHS, read-out: gT1b 40% NHS, EC50 (pM) mean.

Turning to `COC(=O)N[C@H](C(=O)N1CCC[C@H]1c1ncc(-c2cc(F)c(C#CC#Cc3cnc([C@@H]4CCCN4C(=O)[C@H](NC(=O)OC)c4ccccc4)[nH]3)c(-c3ccccc3)c2)[nH]1)C(C)C` [2(17)•2HCl, [(S)-1-((S)-2-{5-[5-Fluoro-6-(4-{2-[(S)-1-((R)-2-methoxycarbonylamino-2-phenyl-acetyl)-pyrrolidin-2-yl]-3H-imidazol-4-yl}-buta-1,3-diynyl)-biphenyl-3-yl]-1H-imidazol-2-yl}-pyrrolidine-1-carbonyl)-2-methyl-propyl]-carbamic acid methyl ester dihydrochloride], the EC50 in the series with HCV gT1b replicon (setting [2]) worked out at 1.36 pM; in the series on HCV gT1b replicon (setting [3]), 9.18 pM; with HCV gT5a replicon it was 26 pM; in the series with HCV gT2a replicon, 5 pM; in the series on HCV gT4a replicon, 11.8 pM; in the series with HCV gT1a replicon, 50.8 pM. Further, in the series on HCV gT3a replicon, the concentration for a half-maximal effect (EC50) is 20.1 pM. Further, the inhibition at 96 h in series [1] stood at 22%.
For the compound `COC(=O)N[C@H](C(=O)N1CCC[C@H]1c1ncc(-c2cc(C)c(C#CC#Cc3cnc([C@@H]4CCCN4C(=O)[C@H](NC(=O)OC)c4ccccc4)[nH]3)c(-c3ccccc3)c2)[nH]1)C(C)C` [2(18)•2HCl, [(S)-1-((S)-2-{5-[6-(4-{2-[(S)-1-((R)-2-Methoxycarbonylamino-2-phenyl-acetyl)-pyrrolidin-2-yl]-3H-imidazol-4-yl}-buta-1,3-diynyl)-5-methyl-biphenyl-3-yl]-1H-imidazol-2-yl}-pyrrolidine-1-carbonyl)-2-methyl-propyl]-carbamic acid methyl ester dihydrochloride], the EC50 in the series on HCV gT1b replicon (setting [2]) was 1.89 pM; in the series on HCV gT1b replicon (setting [3]), 10.9 pM; with HCV gT5a replicon it was 19.2 pM; in the series on HCV gT2a replicon it was 3 pM; in the series with HCV gT4a replicon, 9.6 pM; in the series on HCV gT1a replicon it was 124 pM. Moreover, the EC50 with HCV gT3a replicon stood at 26 pM. Besides, in series [1], the inhibition at 96 h came out at 12%.
Turning to `COC(=O)N[C@H](C(=O)N1CCC[C@H]1c1ncc(-c2ccc(C#CC#Cc3cnc([C@@H]4CCCN4C(=O)[C@H](NC(=O)OC)c4ccccc4)[nH]3)c(Sc3ccccc3)c2)[nH]1)C(C)C` [2(20)•2HCl, [(S)-1-((S)-2-{5-[4-(4-{2-[(S)-1-((R)-2-Methoxycarbonylamino-2-phenyl-acetyl)-pyrrolidin-2-yl]-3H-imidazol-4-yl}-buta-1,3-diynyl)-3-phenylsulfanyl-phenyl]-1H-imidazol-2-yl}-pyrrolidine-1-carbonyl)-2-methyl-propyl]-carbamic acid methyl ester dihydrochloride], the EC50 in the series on HCV gT1b replicon (setting [2]) is 1.7 pM; in the series with HCV gT1b replicon (setting [3]), 9.02 pM. For the same compound, the inhibition at 96 h in series [1] came to 43%.
Consider `COC(=O)N[C@H](C(=O)N1CCC[C@H]1c1ncc(C#CC#Cc2ccc(-c3cnc([C@@H]4CCCN4C(=O)[C@H](NC(=O)OC)c4ccccc4)[nH]3)cc2-c2ccccc2)[nH]1)C(C)C` [2(30)•2HCl, [(S)-1-((S)-2-{5-[4-(5-{2-[(S)-1-((R)-2-Methoxycarbonylamino-2-phenyl-acetyl)-pyrrolidin-2-yl]-3H-imidazol-4-yl}-biphenyl-2-yl)-buta-1,3-diynyl]-1H-imidazol-2-yl}-pyrrolidine-1-carbonyl)-2-methyl-propyl]-carbamic acid methyl ester dihydrochloride], for which the EC50 in the series with HCV gT1b replicon (setting [2]) came out at 2.1 pM; in the series with HCV gT1b replicon (setting [3]), 25.3 pM. In series [1], the inhibition at 96 h was found to be 33%.
